Experimental data from patent US20230219969A1 (priority 2020, published 2023).

How the values were obtained:
[1] = target: T1, 5-HT2C edited (accession number AAF35842.1) (Homo sapiens, UniProt P28335, I156V/I160V/N158S); assay: cell-based
Target sequence in this assay (P28335 33-458 I156V/N158S/I160V limits assumed): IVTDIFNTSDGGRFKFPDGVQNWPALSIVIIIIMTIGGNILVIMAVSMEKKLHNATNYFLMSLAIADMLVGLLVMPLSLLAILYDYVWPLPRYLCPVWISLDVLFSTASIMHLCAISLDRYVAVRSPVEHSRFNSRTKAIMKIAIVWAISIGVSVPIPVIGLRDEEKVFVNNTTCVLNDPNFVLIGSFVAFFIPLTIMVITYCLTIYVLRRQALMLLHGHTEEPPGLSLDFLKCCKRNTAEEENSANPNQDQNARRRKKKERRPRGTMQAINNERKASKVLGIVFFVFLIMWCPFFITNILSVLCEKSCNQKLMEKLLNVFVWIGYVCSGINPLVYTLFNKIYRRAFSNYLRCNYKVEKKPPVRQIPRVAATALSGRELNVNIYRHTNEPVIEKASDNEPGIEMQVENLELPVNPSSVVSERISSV

[2] = target: T1, 5-HT2C edited (accession number AAF35842.1); assay: biochemical; assay type: binding
Target sequence in this assay (P28335 whole entry I156V/N158S/I160V, looked up): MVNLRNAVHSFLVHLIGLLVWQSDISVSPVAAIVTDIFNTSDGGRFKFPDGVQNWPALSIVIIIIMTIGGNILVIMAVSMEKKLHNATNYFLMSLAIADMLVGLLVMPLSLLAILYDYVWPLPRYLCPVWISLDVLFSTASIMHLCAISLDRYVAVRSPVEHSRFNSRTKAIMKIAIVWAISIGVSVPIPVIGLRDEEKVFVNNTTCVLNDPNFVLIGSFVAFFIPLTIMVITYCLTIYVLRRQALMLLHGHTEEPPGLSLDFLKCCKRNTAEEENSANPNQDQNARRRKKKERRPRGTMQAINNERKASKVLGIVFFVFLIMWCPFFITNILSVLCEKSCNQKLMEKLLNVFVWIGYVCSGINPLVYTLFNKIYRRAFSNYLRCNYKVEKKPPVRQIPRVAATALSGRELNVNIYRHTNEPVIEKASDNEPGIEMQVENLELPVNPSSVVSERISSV

For `COc1ccc2c(ccn2CC(C)(C)N(C)C)n1` [Example 21, 1-(5-methoxy-1H-pyrrolo[3,2-b]pyridin-1-yl)-N,N,2-trimethylpropan-2-amine], the EC50 [1] was > 10 µM and the IC50 [2] was > 10 µM.
With `CN(C)C(C)(C)Cn1ccc2cccc(F)c21` [Example 20, 1-(7-fluoro-1H-indol-1-yl)-N,N,2-trimethylpropan-2-amine] the EC50 [1] was > 10 µM and the IC50 [2] was > 10 µM.
Compound `Cc1cn(CC(C)(C)N)c2ccc(F)cc12` [Example 40, 1-(5-fluoro-3-methyl-1H-indol-1-yl)-2-methylpropan-2-amine] has an EC50 [1] of 0.101 to 1 µM and an IC50 [2] of 0.101 to 1 µM.
In the case of `CN(C)CC(=O)n1ccc2ccccc21` [Example 44, 2-(dimethylamino)-1-(1H-indol-1-yl)ethan-1-one], the EC50 [1] is reported as > 10 µM and the IC50 [2] is reported as > 10 µM.
In the case of `C[C@H](Cn1ccc2cnccc21)N(C)C` [Example 39, (R)—N,N-dimethyl-1-(1H-pyrrolo[3,2-c]pyridin-1-yl)propan-2-amine], the EC50 [1] is reported as > 10 µM and the IC50 [2] is reported as > 10 µM.
`C[C@H](C(=O)n1ccc2ccccc21)N(C)C` [Example 46, (R)-2-(dimethylamino)-1-(1H-indol-1-yl)propan-1-one] was tested, and the EC50 [1] was > 10 µM and the IC50 [2] was 1 to 10 µM.
For `COc1ccc2c(c1)CCN2CCN(C)C` [Example 8, 2-(5-methoxyindolin-1-yl)-N,N-dimethylethan-1-amine], the EC50 [1] was > 10 µM and the IC50 [2] was 1 to 10 µM.
With `CN(C)C(C)(C)Cn1ccc2c(F)cccc21` [Example 18, 1-(4-fluoro-1H-indol-1-yl)-N,N,2-trimethylpropan-2-amine] the EC50 [1] was > 10 µM and the IC50 [2] was > 10 µM.
With `CN[C@H](C)Cn1ccc2cc(OC)ncc21` [Example 32, (R)-1-(5-methoxy-1H-pyrrolo[2,3-c]pyridin-1-yl)-N-methylpropan-2-amine] the EC50 [1] was 1 to 10 µM and the IC50 [2] was 1 to 10 µM.
With `COc1ccc2c(ccn2[C@H]2C[C@@H](N(C)C)C2)c1` [Example 24, (1s,3s)-3-(5-methoxy-1H-indol-1-yl)-N,N-dimethylcyclobutan-1-amine] the EC50 [1] was > 10 µM and the IC50 [2] was 1 to 10 µM.
In the case of `COc1cc2ccn(C[C@@H](C)N)c2cn1` [Example 31, (R)-1-(5-methoxy-1H-pyrrolo[2,3-c]pyridin-1-yl)propan-2-amine], the EC50 [1] is reported as 0.101 to 1 µM and the IC50 [2] is reported as 0.101 to 1 µM.
With `CN(C)CCn1ccc2cncnc21` [Example 6, N,N-dimethyl-2-(7H-pyrrolo[2,3-d]pyrimidin-7-yl)ethan-1-amine] the EC50 [1] was > 10 µM and the IC50 [2] was 1 to 10 µM.
In the case of `C[C@@H](N)Cn1ccc2cnccc21` [Example 37, (R)-1-(1H-pyrrolo[3,2-c]pyridin-1-yl)propan-2-amine], the EC50 [1] is reported as 1 to 10 µM and the IC50 [2] is reported as > 10 µM.
`Cc1cn(CC(C)(C)N(C)C)c2ccc(F)cc12` [Example 13, 1-(5-fluoro-3-methyl-1H-indol-1-yl)-N,N,2-trimethylpropan-2-amine] showed an EC50 [1] of 1 to 10 µM and an IC50 [2] of 1 to 10 µM.
With `COc1ccc2c(ccn2CC2(N(C)C)CC2)c1` [Example 2, 1-((5-methoxy-1H-indol-1-yl)methyl)-N,N-dimethylcyclopropan-1-amine] the EC50 [1] was > 10 µM and the IC50 [2] was 1 to 10 µM.
With `CN(C)CC(=O)n1ccc2cc(F)ccc21` [Example 43, 2-(dimethylamino)-1-(5-fluoro-1H-indol-1-yl)ethan-1-one] the EC50 [1] was > 10 µM and the IC50 [2] was > 10 µM.
In the case of `COc1cc2ccn(CCN(C)C)c2cn1` [Example 4, 2-(5-methoxy-1H-pyrrolo[2,3-c]pyridin-1-yl)-N,N-dimethylethan-1-amine], the EC50 [1] is reported as > 10 µM and the IC50 [2] is reported as 0.101 to 1 µM.
For `CN(C)C(C)(C)Cn1ccc2ccc(F)cc21` [Example 19, 1-(6-fluoro-1H-indol-1-yl)-N,N,2-trimethylpropan-2-amine], the EC50 [1] was > 10 µM and the IC50 [2] was > 10 µM.
In the case of `COc1cc2ccn(CC(C)(C)N(C)C)c2cn1` [Example 22, 1-(5-methoxy-1H-pyrrolo[2,3-c]pyridin-1-yl)-N,N,2-trimethylpropan-2-amine], the EC50 [1] is reported as > 10 µM and the IC50 [2] is reported as > 10 µM.
`COc1ccc2c(ccn2C(=O)CN(C)C)c1` [Example 45, 2-(dimethylamino)-1-(5-methoxy-1H-indol-1-yl)ethan-1-one] was tested, and the EC50 [1] was > 10 µM and the IC50 [2] was > 10 µM.
With `COc1ccc2c(c1)CCCN2CCN(C)C` [Example 9, 2-(6-methoxy-3,4-dihydroquinolin-1(2H)-yl)-N,N-dimethylethan-1-amine] the EC50 [1] was > 10 µM and the IC50 [2] was 0.101 to 1 µM.
For `C[C@@H](N)Cn1ccc2cncnc21` [Example 26, (R)-1-(7H-pyrrolo[2,3-d]pyrimidin-7-yl)propan-2-amine], the EC50 [1] was 1 to 10 µM and the IC50 [2] was 1 to 10 µM.
`COc1cc(F)c2c(ccn2CC(C)(C)N(C)C)c1` [Example 17, 1-(7-fluoro-5-methoxy-1H-indol-1-yl)-N,N,2-trimethylpropan-2-amine] was tested, and the EC50 [1] was > 10 µM and the IC50 [2] was > 10 µM.
`CN(C)CCn1ccc2cnccc21` [Example 7, N,N-dimethyl-2-(1H-pyrrolo[3,2-c]pyridin-1-yl)ethan-1-amine] was tested, and the EC50 [1] was > 10 µM and the IC50 [2] was > 10 µM.
